Patent US4657916A, “Quinoline-N-oxide derivative and pharmaceutical composition” (Kyowa Hakko Kogyo Co., Ltd., priority 1984, dated 1987)
Counter-ions that a name gives are not always drawn.

molecular target: T1, 5-lipoxygenase (Rattus norvegicus, UniProt P12527); experiment: Inhibiting action on leukocyte 5-lipoxygenase in vitro (RBL-1 cells as enzyme source, 14C-arachidonic acid); format: biochemical, rats; details: 1 μM compound; RBL-1 rat cells; 37° C., 5 minutes; read-out: 5-lipoxygenase-inhibiting activity: Percent inhibition at 1 μM compound concentration
T1 construct: (RBL-1, ATCC NO. CRL 1378) cells of rats were used as a 5-lipoxygenase enzyme source; endogenous in cells; host or cells: RBL-1 (rat basophilic leukemia) cells, ATCC CRL 1378
T1 sequence (P12527 1-673): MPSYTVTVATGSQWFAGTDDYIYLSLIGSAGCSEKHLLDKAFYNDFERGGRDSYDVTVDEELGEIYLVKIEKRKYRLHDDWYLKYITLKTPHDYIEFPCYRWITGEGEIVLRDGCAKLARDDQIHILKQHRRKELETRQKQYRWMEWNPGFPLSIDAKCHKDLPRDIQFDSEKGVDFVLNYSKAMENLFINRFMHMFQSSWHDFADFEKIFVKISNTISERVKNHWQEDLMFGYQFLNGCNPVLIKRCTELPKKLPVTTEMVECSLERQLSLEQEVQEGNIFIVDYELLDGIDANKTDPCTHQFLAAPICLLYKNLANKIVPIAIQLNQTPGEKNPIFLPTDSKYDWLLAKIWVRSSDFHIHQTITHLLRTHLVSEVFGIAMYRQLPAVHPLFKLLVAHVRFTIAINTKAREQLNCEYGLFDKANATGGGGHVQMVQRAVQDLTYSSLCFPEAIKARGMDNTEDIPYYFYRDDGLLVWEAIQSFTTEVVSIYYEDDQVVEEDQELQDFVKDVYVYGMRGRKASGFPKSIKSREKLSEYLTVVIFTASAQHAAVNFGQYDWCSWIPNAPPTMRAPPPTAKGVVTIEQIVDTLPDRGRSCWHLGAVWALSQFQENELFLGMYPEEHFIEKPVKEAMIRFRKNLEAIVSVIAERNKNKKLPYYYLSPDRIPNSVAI
Method: Inhibiting actions of test compounds shown in Table 2 on lipoxygenase in vitro were determined according to the following procedure.
Procedure for determining inhibiting actions on leukocyte 5-lipoxygenase:
Determination was conducted according to the modified B. A. Jakschik et al procedure [Biochim. Biophys. Res. Commun. 95, 103 (1980)]. That is, Leukemic basophilic granulocyte (RBL-1, ATCC NO. CRL 1378) cells of rats were used as a 5-lipoxygenase enzyme source, and the cells and a test compound were contacted with each other in a 0.07 M tris hydrochloric acid buffer solution in the presence of 0.7 μm moles of calcium chloride at 37° C. for 5 minutes, and then 20 μmoles of [^14 C]-arachidonic acid was added thereto. The mixture was subjected to reaction at 37° C. for 5 minutes. The reaction product was extracted with ethyl acetate/methanol/0.2 M citric acid (30/4/1) and the extract was subjected to a thin layer chromatographic separation (developing solvent: petroleum ether/ethyl ether/acetic acid=50/50/1), and the spot of […] in the product was scraped off and ^14 C was measured by a liquid scintillation counter.

Row | Compound | inhibition at 1 µM
1 | [O-][n+]1c(CCCOC2CCCCO2)cc(O)c2ccccc21 (stereo not shown) [Example 4, 4-hydroxy-2-[3-(2-tetrahydropyranyloxy)propyl] quinoline-N-oxide] | 1.6%
2 | [O-][n+]1c(CCCCCCCCCCCOC2CCCCO2)cc(OCc2ccccc2)c2ccccc21 (stereo not shown) [Example 6, 4-benzyloxy-2-[11-(2-tetrahydropyranyloxy)undecyl] quinoline-N-oxide] | 20%
3 | [O-][n+]1c(CCCCCCCCCCCNCc2ccccc2)cc(OCc2ccccc2)c2ccccc21 [Example 10, 4-benzyloxy-2-[11-(N-benzylaminoundecyl)] quinoline-N-oxide] | 32.4%
4 | COC(CCCCCCCCCCc1cc(OCc2ccccc2)c2ccccc2[n+]1[O-])OC [Example 12, 4-benzyloxy-2-(11,11-dimethoxyundecyl) quinoline-N-oxide] | 37.2%

The next lines start with the values.

Row | inhibition at 1 µM | Compound
5 | 7.7% | [O-][n+]1c(CCCCCCCCCCCO)cc(OCc2ccccc2)c2ccccc21 [1-(2), 4-benzyloxy-2-(11-hydroxyundecyl) quinoline-N-oxide]
6 | 2.7% | [O-][n+]1c(CCCO)cc(OCc2ccccc2)c2ccccc21 [Example 2, 4-benzyloxy-2-(3-hydroxypropyl) quinoline-N-oxide]
7 | 33.1% | O=CCCCCCCCCCCc1cc(OCc2ccccc2)c2ccccc2[n+]1[O-] [Example 7, 4-benzyloxy-2-(10-formyldecyl) quinoline-N-oxide]
8 | 27.3% | O=C(O)CCCCCCCCCCc1cc(OCc2ccccc2)c2ccccc2[n+]1[O-] [Example 8, 4-benzyloxy-2-(10-carboxydecyl) quinoline-N-oxide]
9 | 27% | NCCCCCCCCCCCc1cc(OCc2ccccc2)c2ccccc2[n+]1[O-] [Example 9, 4-benzyloxy-2-(11-aminoundecyl) quinoline-N-oxide]
10 | 36.6% | [O-][n+]1c(CCCCCCCCCCC=NO)cc(OCc2ccccc2)c2ccccc21 [Example 11]
11 | 11.5% | [O-][n+]1c(CCCOC2CCCCO2)cc(OCc2ccccc2)c2ccccc21 (stereo not shown) [Example 13, 4-benzyloxy-2-[3-(2-tetrahydropyranyloxy)propyl]quinoline-Noxide]

same assay, conditions: RBL-1 rat cells; 37° C., 5 minutes

Row | IC50 | Compound
12 | 280 nM | [O-][n+]1c(CCCCCCCCCCCO)cc(O)c2ccccc21 [Example 3, 4-hydroxy-2-(11-hydroxyundecyl) quinoline-N-oxide]
13 | 220 nM | [O-][n+]1c(CCCCCCCCCCCO)c(Br)c(O)c2ccccc21 [Example 5, 3-bromo-4-hydroxy-2-(11-hydroxyundecyl) quinoline-N-oxide]
14 | 160 nM | [O-][n+]1c(CCCCCCCCCCCOC2CCCCO2)cc(O)c2ccccc21 (stereo not shown) [Example 14, 4-hydroxy-2-[11-(2-tetrahydropyranyloxy)undecyl] quinoline-N-oxide]
15 | 2700 nM | O=C(O)CCCCCCCCCCc1cc(O)c2ccccc2[n+]1[O-] [Example 15, 4-hydroxy-2-(10-carboxydecyl) quinoline-Noxide]
16 | 250 nM | NCCCCCCCCCCCc1cc(O)c2ccccc2[n+]1[O-] [Example 16, 4-hydroxy-2-(11-aminoundecyl) quinoline-Noxide. hydrochloride]
17 | 270 nM | [O-][n+]1c(CCCCCCCCCCCNCc2ccccc2)cc(O)c2ccccc21 [Example 17, 4-hydroxy-2-[11-(N benzylaminoundecyl)] quinoline-Noxide]
18 | 180 nM | COC(CCCCCCCCCCc1cc(O)c2ccccc2[n+]1[O-])OC [Example 19, 4-hydroxy-2-(11,11-dimethoxyundecyl) quinoline-Noxide]
19 | 1700 nM | O=CCCCCCCCCCCc1cc(O)c2ccccc2[n+]1[O-] [Example 20, 4-hydroxy-2-(10-formyldecyl) quinoline-Noxide]
